Data on 15 molecules can be found in PubChem BioAssay (NCI).

Some test systems named below: HT29 colon; NCI-H226 lung; NCI-H460 lung; OVCAR-5 ovarian; RXF 393 renal; TK-10 renal; UACC-257 melanoma; BT-549 breast; HS 578T breast; SK-MEL-5 melanoma.
Common to all, as to test: NCI tumour cell line growth inhibition, 48 h

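Values below derive from 48-hour exposures of cells grown in 96-well plates, with endpoints linearly interpolated between the two concentrations bracketing the appropriate inhibition level. GI50 is the concentration that inhibits growth by half. TGI denotes the concentration required for complete inhibition of growth.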

As for `CCOc1ccc(NC(=O)CC2C(=O)Nc3ccccc3S2(=O)=O)cc1` (configuration not stated), the TGI is greater than 100 µM with HT29 colon; 90.3 µM in the assay with NCI-H226 lung; greater than 100 µM in the assay with NCI-H460 lung; greater than 100 µM in the assay with OVCAR-5 ovarian; greater than 100 µM in the assay on RXF 393 renal; greater than 100 µM in the assay with TK-10 renal. For the same molecule, in the assay with UACC-257 melanoma, the TGI is greater than 100 µM.

Consider `COc1cccc(/C=C2\COc3ccc(-c4ccccc4)cc3C2=O)c1`, for which the GI50 in the assay with BT-549 breast is 2.09 µM; with HS 578T breast, 2.76 µM; in the assay on HT29 colon, 1.7 µM; in the assay with NCI-H226 lung, 2.57 µM; in the assay on NCI-H460 lung, 1.74 µM; with OVCAR-5 ovarian, 3.67 µM. Besides, the GI50 in the assay on SK-MEL-5 melanoma is 1.67 µM; in the assay on TK-10 renal, 2.35 µM. Moreover, the TGI with BT-549 breast turned out to be 4.94 µM; with HS 578T breast it was 6.61 µM; in the assay on HT29 colon it was 4.72 µM; in the assay on NCI-H226 lung, 6.79 µM; in the assay on NCI-H460 lung it was 3.78 µM; in the assay on OVCAR-5 ovarian it was 13.2 µM. Also, the TGI in the assay on SK-MEL-5 melanoma is 3.55 µM; in the assay with TK-10 renal, 5.03 µM.

`C=CCc1cc(OC)c2c(c1)C(OC)CC(c1ccc(OC)c(OC)c1)O2` (configuration not stated): the TGI with HT29 colon, in the assay with NCI-H460 lung, with OVCAR-5 ovarian, in the assay on SK-MEL-5 melanoma, in the assay on TK-10 renal and in the assay with UACC-257 melanoma was greater than 100 µM each time.

On to `CCSc1c2ccccc2c(-c2nc(F)nc(F)n2)n1CCc1ccccc1`, for which the TGI in the assay with HT29 colon, in the assay with NCI-H226 lung, in the assay with NCI-H460 lung, in the assay with OVCAR-5 ovarian, with RXF 393 renal and with TK-10 renal was greater than 100 µM in each case.

For the molecule `Nc1ncnc2c1ncn2C1CC(OCc2ccccc2[N+](=O)[O-])C(CO)O1` (configuration not stated), the TGI in the assay with HT29 colon is greater than 50 µM; in the assay with NCI-H226 lung, 36.3 µM; in the assay on NCI-H460 lung, greater than 50 µM; in the assay on OVCAR-5 ovarian, greater than 50 µM; in the assay with RXF 393 renal it was 21.4 µM; with TK-10 renal it was greater than 50 µM. In addition, the TGI in the assay with UACC-257 melanoma is greater than 50 µM.

On to `CC1(c2ccc(Cl)cc2)C2C(=O)NC(=O)C1C(=O)NC2=O` (configuration not stated), for which the TGI in the assay on HT29 colon, with NCI-H460 lung, in the assay on OVCAR-5 ovarian, with RXF 393 renal, in the assay with SK-MEL-5 melanoma and with TK-10 renal was greater than 100 µM throughout. This molecule registered a TGI with UACC-257 melanoma greater than 100 µM.

As for `CCOC(=O)C1(C)CCCCC(=O)N1` (configuration not stated), the TGI with HT29 colon, with NCI-H460 lung, in the assay on RXF 393 renal and in the assay with TK-10 renal was greater than 100 µM each time.

Take `COC(=O)C=Cc1ccc2nncnc2c1` (mixture of isomers): the TGI in the assay on BT-549 breast was greater than 100 µM; with HS 578T breast it was greater than 100 µM; in the assay on HT29 colon, greater than 100 µM; in the assay with NCI-H226 lung, greater than 100 µM; in the assay with OVCAR-5 ovarian, greater than 100 µM; with SK-MEL-5 melanoma it was 20.8 µM. Also, the TGI in the assay on TK-10 renal is greater than 100 µM; in the assay on UACC-257 melanoma, 36.3 µM.

Turning to `COc1ccc(/C=C/C(=O)c2sc(-n3nc(-c4ccccc4)cc3-c3ccccc3)nc2C)cc1`, the TGI in the assay on HT29 colon, with NCI-H226 lung, in the assay with NCI-H460 lung, in the assay with RXF 393 renal, in the assay with SK-MEL-5 melanoma and in the assay on TK-10 renal was greater than 100 µM each time. In the assay on UACC-257 melanoma, the TGI is greater than 100 µM. The GI50 in the assay on NCI-H226 lung, with NCI-H460 lung, in the assay with RXF 393 renal and with TK-10 renal was greater than 100 µM each time.

In the case of `Cn1nc(-c2ccccc2)c2c(/C=C/c3ccccc3)onc2c1=O`, the TGI in the assay with HT29 colon, with NCI-H226 lung, with NCI-H460 lung, with OVCAR-5 ovarian, in the assay on RXF 393 renal and in the assay on SK-MEL-5 melanoma was greater than 100 µM each time. In addition, the TGI in the assay with TK-10 renal and in the assay with UACC-257 melanoma was greater than 100 µM in each case.

With `CC(=O)O[C@H]1CC[C@@]2(C)C(=CC[C@@H]3C2CC[C@]2(C)Nc4nc5ccccc5cc4CC32)C1` (some centres not stated), the TGI in the assay on HT29 colon turned out to be 3.68 µM; with NCI-H226 lung, 8.25 µM; in the assay with NCI-H460 lung, 17.5 µM; in the assay on OVCAR-5 ovarian, 26.9 µM; in the assay with RXF 393 renal, 5.09 µM; with SK-MEL-5 melanoma, 15.4 µM. The TGI is 18.1 µM with TK-10 renal and 13 µM in the assay with UACC-257 melanoma.

Regarding `CC(=O)C1=C(O)C2C3c4c[nH]c5cccc(c45)CC3C(C)(C)N2C1=O` (configuration not stated), the TGI in the assay on HT29 colon is greater than 100 µM; with NCI-H226 lung it was 71.4 µM; with NCI-H460 lung, 31.8 µM; in the assay on OVCAR-5 ovarian it was greater than 100 µM; in the assay with SK-MEL-5 melanoma, 27.2 µM; in the assay with TK-10 renal, greater than 100 µM. This molecule also registered a TGI in the assay with UACC-257 melanoma greater than 100 µM.

Regarding `O=C1Cc2cc(C(=O)NC3C[C@H]4CC[C@@H](C3)N4S(=O)(=O)CC3CCN(CCCC(F)(F)F)CC3)c(Cl)cc2N1` (some centres not stated), the GI50 with BT-549 breast, in the assay on HS 578T breast, in the assay with HT29 colon, with NCI-H226 lung, with NCI-H460 lung and with OVCAR-5 ovarian was greater than 100 µM each time. The GI50 in the assay with SK-MEL-5 melanoma, in the assay with TK-10 renal and with UACC-257 melanoma was greater than 100 µM throughout. For the same molecule, the TGI in the assay on BT-549 breast, in the assay on HS 578T breast, in the assay with HT29 colon, with NCI-H226 lung, in the assay with NCI-H460 lung and with OVCAR-5 ovarian was greater than 100 µM in each case. Further, the TGI in the assay on SK-MEL-5 melanoma, with TK-10 renal and with UACC-257 melanoma was greater than 100 µM throughout.

Regarding `CN1c2ccccc2N(C(=O)c2ccccc2)C(CC(=O)O)c2cccn21` (configuration not stated), the TGI with HT29 colon, in the assay on NCI-H460 lung, with OVCAR-5 ovarian, with RXF 393 renal, in the assay with SK-MEL-5 melanoma and in the assay on TK-10 renal was greater than 100 µM throughout. This molecule also returned a TGI in the assay on UACC-257 melanoma greater than 100 µM.

As to `ClC(Cl)[Si]12OCCN(CCO1)CCO2`, the TGI with HT29 colon, in the assay with NCI-H460 lung, with OVCAR-5 ovarian, in the assay with RXF 393 renal, with SK-MEL-5 melanoma and in the assay on TK-10 renal was greater than 100 µM each time. The same molecule displayed a TGI in the assay on UACC-257 melanoma greater than 100 µM.
